Earlier results, collected in patent US12486292B2, “Prodrug platform useful to deliver amines, amides and phenols” (Changchun Changcheng Pharmaceutical Technology Co., LTD, priority 2019, dated 2025).

Details: phase I human clinical trials, oral dosing

CCCC(CCC)C(=O)Nc1ccn([C@@H]2O[C@H](CO)[C@@H](O)C2(F)F)c(=O)n1 [LY2334737]
Hepatotoxicity: observed in some patients
